# Test results reported in ChEMBL document CHEMBL1157504, “Discovery and SAR of 2-(1-propylpiperidin-4-yl)-1H-benzimidazole-4-carboxamide: A potent inhibitor of poly(ADP-ribose) polymerase (PARP) for the treatment of cancer” (Bioorg Med Chem, 2008).
# Experiments:
# [1] = target: T1, Poly [ADP-ribose] polymerase 1 (Homo sapiens, UniProt P09874)
# [2] = target: T1, Poly [ADP-ribose] polymerase 1; remark: listed apart in the source
# Description: Inhibition of PARP1 in human C41 cells
# [3] = Oral bioavailability in CD1 mouse at 10 mg/kg; type: ADME, organism-based; conditions: in vivo
# [4] = Half life in CD1 mouse at 3 mg/kg, iv; type: ADME, organism-based; design: dose 3 mg/kg, route intravenous; conditions: in vivo
# [5] = AUC in CD1 mouse at 10 mg/kg, po; type: ADME, organism-based; design: dose 10 mg/kg, route oral; conditions: plasma
# [6] = Cmax in CD1 mouse at 10 mg/kg, po; type: ADME, organism-based; design: dose 10 mg/kg, route oral; conditions: in vivo
# [7] = target: Poly [ADP-ribose] polymerase 2 (Homo sapiens, UniProt Q9UGN5); assay: Inhibition of PARP2
# Poly [ADP-ribose] polymerase 2, sequence (Q9UGN5 whole entry): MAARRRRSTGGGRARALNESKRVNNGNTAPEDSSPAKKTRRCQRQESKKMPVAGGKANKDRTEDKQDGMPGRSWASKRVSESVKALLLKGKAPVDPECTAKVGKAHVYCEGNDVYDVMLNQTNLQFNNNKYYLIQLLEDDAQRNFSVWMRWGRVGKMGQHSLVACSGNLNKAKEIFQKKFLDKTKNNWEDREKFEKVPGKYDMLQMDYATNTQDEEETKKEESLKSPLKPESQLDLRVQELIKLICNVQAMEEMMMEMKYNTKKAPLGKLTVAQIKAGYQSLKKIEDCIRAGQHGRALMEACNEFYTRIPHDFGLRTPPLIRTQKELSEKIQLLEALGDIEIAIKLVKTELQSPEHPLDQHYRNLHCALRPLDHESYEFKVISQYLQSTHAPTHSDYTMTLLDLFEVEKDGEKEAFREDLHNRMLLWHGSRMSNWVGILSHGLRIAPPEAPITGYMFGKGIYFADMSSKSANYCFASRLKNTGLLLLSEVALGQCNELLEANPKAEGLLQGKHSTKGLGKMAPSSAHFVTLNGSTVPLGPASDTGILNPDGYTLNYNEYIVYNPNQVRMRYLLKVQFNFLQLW
# [8] = Volume of distribution at steady state in CD1 mouse at 10 mg/kg; type: ADME, organism-based; design: dose 10 mg/kg; conditions: in vivo, read-out: Vdss
# [9] = Clearance in CD1 mouse at 10 mg/kg; type: ADME, organism-based; design: dose 10 mg/kg; conditions: in vivo
# [10] = Oral bioavailability in rat at 4.1 mg/kg; type: ADME, organism-based; conditions: in vivo
# [11] = Half life in rat at 4.1 mg/kg, iv; type: ADME, organism-based; design: dose 4.1 mg/kg, route intravenous; conditions: in vivo
# [12] = AUC in rat at 4.1 mg/kg, po; type: ADME, organism-based; design: dose 4.1 mg/kg, route oral; conditions: plasma
# [13] = Cmax in rat at 4.1 mg/kg, po; type: ADME, organism-based; design: dose 4.1 mg/kg, route oral; conditions: in vivo
# [14] = Volume of distribution at steady state in rat at 4.1 mg/kg; type: ADME, organism-based; design: dose 4.1 mg/kg; conditions: in vivo, read-out: Vdss
# [15] = Clearance in rat at 4.1 mg/kg; type: ADME, organism-based; design: dose 4.1 mg/kg; conditions: in vivo
# [16] = Oral bioavailability in dog at 4.1 mg/kg; type: ADME, organism-based, Canis lupus familiaris; conditions: in vivo
# [17] = Half life in dog at 4.1 mg/kg, iv; type: ADME, organism-based, Canis lupus familiaris; design: dose 4.1 mg/kg, route intravenous; conditions: in vivo
# [18] = AUC in dog at 4.1 mg/kg, po; type: ADME, organism-based, Canis lupus familiaris; design: dose 4.1 mg/kg, route oral; conditions: plasma
# [19] = Cmax in dog at 4.1 mg/kg, po; type: ADME, organism-based, Canis lupus familiaris; design: dose 4.1 mg/kg, route oral; conditions: in vivo
# [20] = Volume of distribution at steady state in dog at 4.1 mg/kg; type: ADME, organism-based, Canis lupus familiaris; design: dose 4.1 mg/kg; conditions: in vivo, read-out: Vdss
# [21] = Clearance in dog at 4.1 mg/kg; type: ADME, organism-based, Canis lupus familiaris; design: dose 4.1 mg/kg; conditions: in vivo
# [22] = Oral bioavailability in monkey at 4.1 mg/kg; type: ADME, organism-based, Macaca mulatta; conditions: rhesus monkey, in vivo
# [23] = Half life in monkey at 4.1 mg/kg, iv; type: ADME, organism-based, Macaca mulatta; design: dose 4.1 mg/kg, route intravenous; conditions: rhesus monkey, in vivo
# [24] = AUC in monkey at 4.1 mg/kg, po; type: ADME, organism-based, Macaca mulatta; design: dose 4.1 mg/kg, route oral; conditions: rhesus monkey, plasma
# [25] = Cmax in monkey at 4.1 mg/kg, po; type: ADME, organism-based, Macaca mulatta; design: dose 4.1 mg/kg, route oral; conditions: rhesus monkey, in vivo
# [26] = Volume of distribution at steady state in monkey at 4.1 mg/kg; type: ADME, organism-based, Macaca mulatta; design: dose 4.1 mg/kg; conditions: rhesus monkey, in vivo, read-out: Vdss
# [27] = Clearance in monkey at 4.1 mg/kg; type: ADME, organism-based, Macaca mulatta; design: dose 4.1 mg/kg; conditions: rhesus monkey, in vivo
# [28] = Solubility in water at pH 7.8; type: physicochemical
# [29] = Protein binding in human plasma; type: ADME, cell-free; conditions: read-out: PPB (converted)
# [30] = Half life in CD1 mouse at 3 mg/kg, iv; conditions: in vivo
# T1 sequence (P09874 whole entry): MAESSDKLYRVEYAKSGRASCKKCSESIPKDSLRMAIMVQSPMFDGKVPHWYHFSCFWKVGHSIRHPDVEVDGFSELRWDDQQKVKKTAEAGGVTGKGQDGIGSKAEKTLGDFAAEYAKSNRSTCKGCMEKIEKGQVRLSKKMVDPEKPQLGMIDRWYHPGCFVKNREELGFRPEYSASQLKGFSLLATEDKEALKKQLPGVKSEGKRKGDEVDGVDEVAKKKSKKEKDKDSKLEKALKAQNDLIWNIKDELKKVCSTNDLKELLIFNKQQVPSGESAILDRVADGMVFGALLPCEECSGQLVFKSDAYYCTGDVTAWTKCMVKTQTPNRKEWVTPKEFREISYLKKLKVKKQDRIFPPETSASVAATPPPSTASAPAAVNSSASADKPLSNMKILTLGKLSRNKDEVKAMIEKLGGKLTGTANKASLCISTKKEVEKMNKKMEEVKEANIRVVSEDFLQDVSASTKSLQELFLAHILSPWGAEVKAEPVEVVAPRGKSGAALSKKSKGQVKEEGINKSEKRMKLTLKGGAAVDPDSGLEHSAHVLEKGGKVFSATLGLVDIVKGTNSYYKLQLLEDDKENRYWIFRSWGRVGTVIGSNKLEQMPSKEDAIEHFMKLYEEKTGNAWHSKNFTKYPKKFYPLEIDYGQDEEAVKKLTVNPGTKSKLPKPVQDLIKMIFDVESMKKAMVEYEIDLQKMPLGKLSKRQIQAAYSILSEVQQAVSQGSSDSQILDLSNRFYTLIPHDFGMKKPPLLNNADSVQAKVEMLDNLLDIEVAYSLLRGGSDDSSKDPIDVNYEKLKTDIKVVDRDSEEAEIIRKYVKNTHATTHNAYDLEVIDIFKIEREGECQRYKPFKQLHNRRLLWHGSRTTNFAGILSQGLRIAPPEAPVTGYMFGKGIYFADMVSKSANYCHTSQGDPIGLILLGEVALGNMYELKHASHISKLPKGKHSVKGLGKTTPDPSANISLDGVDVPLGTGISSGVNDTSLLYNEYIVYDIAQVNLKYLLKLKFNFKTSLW
smiles,measurement,setting,value
NC(=O)c1cccc2[nH]cnc12,Ki,[1],0.24 µM
COC1CCC(c2nc3cccc(C(N)=O)c3[nH]2)CC1 (centres undefined),Ki,[1],0.044 µM
same,EC50,[2],0.21 µM
CN1CCCCC1c1nc2c(C(N)=O)cccc2[nH]1 (centres undefined),Ki,[1],0.029 µM
same,EC50,[2],0.03 µM
CC(C)N1CCC[C@H]1c1nc2c(C(N)=O)cccc2[nH]1,Ki,[1],0.02 µM
same,EC50,[2],0.015 µM
NC(=O)c1cccc2[nH]c(C3CCN(C4CCCC4)CC3)nc12,Ki,[1],0.006 µM
same,EC50,[2],0.005 µM
CC(C)N1CCCC(c2nc3cccc(C(N)=O)c3[nH]2)C1 (centres undefined),bioavailability,[3],100%
same,half-life,[4],0.4 h
same,AUC,[5],1200 ng·h/mL
same,Cmax,[6],800 ng/mL
same,Ki,[1],0.022 µM
same,EC50,[2],0.012 µM
CCCN1CC(c2nc3c(C(N)=O)cccc3[nH]2)C1,Ki,[1],0.017 µM
same,EC50,[2],0.016 µM
CCCN1CCC(c2nc3cccc(C(N)=O)c3[nH]2)CC1,Ki,[7],0.005 µM
same,bioavailability,[3],63%
same,half-life,[4],1.2 h
same,AUC,[5],1200 ng·h/mL
same,Cmax,[6],400 ng/mL
same,Vd,[8],9.1 L/kg
same,clearance,[9],88.3 mL/min/kg
same,bioavailability,[10],48%
same,half-life,[11],2.6 h
same,AUC,[12],700 ng·h/mL
same,Cmax,[13],800 ng/mL
same,Vd,[14],10.7 L/kg
same,clearance,[15],48.3 mL/min/kg
same,bioavailability,[16],82%
same,half-life,[17],2.7 h
same,AUC,[18],3700 ng·h/mL
same,Cmax,[19],1000 ng/mL
same,Vd,[20],3.6 L/kg
same,clearance,[21],15 mL/min/kg
same,bioavailability,[22],32%
same,half-life,[23],1.7 h
same,AUC,[24],700 ng·h/mL
same,Cmax,[25],200 ng/mL
same,Vd,[26],4.9 L/kg
same,clearance,[27],33.3 mL/min/kg
same,solubility,[28],6000 µg/mL
same,fraction unbound,[29],0.43
same,Ki,[1],0.008 µM
same,EC50,[2],0.003 µM
same,half-life,[30],1.2 h
CC(C)N1CCC(c2nc3c(C(N)=O)cccc3[nH]2)CC1,Ki,[7],0.002 µM
same,Ki,[1],0.007 µM
same,EC50,[2],0.004 µM
NC(=O)c1cccc2[nH]c(C3CCN(CCc4ccccc4)C3)nc12 (centres undefined),bioavailability,[3],89%
same,half-life,[4],0.8 h
same,AUC,[5],1300 ng·h/mL
same,Cmax,[6],700 ng/mL
same,EC50,[2],0.006 µM
CN1CCCC(c2nc3c(C(N)=O)cccc3[nH]2)C1 (centres undefined),Ki,[1],0.03 µM
same,EC50,[2],0.015 µM
CN1CCC(c2nc3cccc(C(N)=O)c3[nH]2)CC1,Ki,[1],0.019 µM
same,EC50,[2],0.009 µM
N#Cc1ccc(N2CCC(c3nc4c(C(N)=O)cccc4[nH]3)CC2)cc1,Ki,[1],0.003 µM
same,EC50,[2],0.021 µM
CCN(CC)CCN1CCC(c2nc3cccc(C(N)=O)c3[nH]2)CC1,Ki,[1],0.031 µM
same,EC50,[2],0.094 µM
NC(=O)c1cccc2[nH]c(C3CNCCN3)nc12 (centres undefined),Ki,[1],0.026 µM
same,EC50,[2],> 1 µM
CN(C)S(=O)(=O)N1CCC(c2nc3c(C(N)=O)cccc3[nH]2)CC1,Ki,[1],0.028 µM
same,EC50,[2],0.17 µM
CC(C)N1CCC(c2nc3c(C(N)=O)cc(Cl)cc3[nH]2)CC1,bioavailability,[3],100%
same,half-life,[4],1.4 h
same,AUC,[5],1700 ng·h/mL
same,Cmax,[6],300 ng/mL
same,Ki,[1],0.018 µM
same,EC50,[2],0.009 µM
NC(=O)c1cccc2nc([C@@H]3CCC(=O)N3)[nH]c12,Ki,[7],0.003 µM
CC(=O)N1CCC(c2nc3cccc(C(N)=O)c3[nH]2)CC1,Ki,[1],0.059 µM
NC(=O)c1cccc2[nH]c(C3CCNCC3)nc12,Ki,[1],0.005 µM
same,EC50,[2],> 1 µM
CC(C)N1CCC1c1nc2c(C(N)=O)cccc2[nH]1 (centres undefined),Ki,[1],0.11 µM
NC(=O)c1cccc2[nH]c(C3CCCNC3)nc12 (centres undefined),bioavailability,[3],26%
same,half-life,[4],2 h
same,AUC,[5],1000 ng·h/mL
same,Cmax,[6],200 ng/mL
same,Ki,[1],0.011 µM
same,EC50,[2],0.024 µM
NC(=O)c1cccc2[nH]c([C@H]3CCCN3)nc12,bioavailability,[3],100%
same,half-life,[4],1.2 h
same,AUC,[5],3400 ng·h/mL
same,Cmax,[6],1800 ng/mL
CCCN1CCC(c2nc3c(C(N)=O)cccc3[nH]2)C1 (centres undefined),Ki,[1],0.008 µM
same,EC50,[2],0.003 µM
NC(=O)c1cccc2[nH]c(C3CCN3)nc12 (centres undefined),EC50,[2],0.2 µM
CC(C)N1CCC[C@@H]1c1nc2cccc(C(N)=O)c2[nH]1,Ki,[1],0.021 µM
same,EC50,[2],0.012 µM
CC(C)N1CCCCC1c1nc2c(C(N)=O)cccc2[nH]1 (centres undefined),Ki,[1],0.045 µM
same,EC50,[2],0.013 µM
CN1CCC[C@@H]1c1nc2c(C(N)=O)cccc2[nH]1,bioavailability,[3],25%
same,half-life,[4],0.1 h
same,AUC,[5],40 ng·h/mL
same,Cmax,[6],30 ng/mL
CC(C)N1CCCC(c2nc3cccc(C(N)=O)c3[nH]2)CC1 (centres undefined),Ki,[1],0.005 µM
same,EC50,[2],0.006 µM
CN1CCN(C)C(c2nc3cccc(C(N)=O)c3[nH]2)C1 (centres undefined),Ki,[1],0.035 µM
same,EC50,[2],0.097 µM
CCCN1CCC(c2nc3c(C(N)=O)cccc3n2C)CC1,Ki,[1],0.034 µM
same,EC50,[2],0.021 µM
NC(=O)c1cccc2[nH]c(C3CCN(S(=O)(=O)c4ccccc4)CC3)nc12,Ki,[7],0.024 µM
same,Ki,[1],0.027 µM
same,EC50,[2],> 1 µM
NC(=O)c1cccc2[nH]c(C3CNC3)nc12,Ki,[7],0.011 µM
